Source: patent publication US8334272B2, “Methods for nucleic acid transfer into cells” (Northwestern University, priority 2007, dated 2012)
“Also recorded” adds a separate entry of the source.

Experiments:
A549 cells = test: Luciferase expression after electroporation of pCMV-Lux-DTS plasmid (transfection efficiency); type: cell-based, human; details: for exogenous gene expression (luciferase) versus vehicle control: A549, 24 hours after electroporation and 25 hours after drug treatment; for luciferase expression versus DMSO (vehicle) treated or wild type cells: A549, 3 hours after electroporation, 1 μM TSA, 3 mM 17b, 1 mM 17-AAG, 10 nM okadaic acid; for exogenous gene expression as measured by luciferase expression over appropriate control (FIG. 4): A549 cell cultures
Description: Human adenocarcinoma A549 cells (ATCC, #CCL-185, Rockville, Md.) were grown in DMEM supplemented with 10% fetal bovine serum (FBS). A stable line of A549 cells expressing firefly luciferase was constructed by transfection of cells with plasmid pGL4.14[luc2/Hygro] (Promega, Madison, Wis.) and selection with hygromycin. Colonies were pooled and passaged under selection. HIF-1 and HIF-2 knockdowns were created in A549 cells using retroviral methods with the PT67 packaging cell line (Clontech, Mountain View, Calif.). PT67 cells were transfected with 10 to 15 μg of specific shRNA-expressing or empty plasmids using lipofectin (Invitrogen, Carlsbad, Calif.) according to the manufacturer's protocol. Virus-containing medium was supplemented with 8 μg/ml of polybrene (Sigma, St. Louis, Mo.) for infection. Stable HDAC6 knockdown or stable HDAC6 overexpressing A549 cells were a generous gift from T. P. Yao (Duke University). For electroporations, cells were grown to confluency in […] dishes, and rinsed twice in serum- and antibiotic-free media. Five micrograms of plasmids in 500 µl of serum and antibiotic-free DMEM were added to each well and one […] square wave electric pulse was applied using a PetriPulser electrode (BTX, San Diego, Calif.). […] Drugs were used at the following final concentrations: 1 μM TSA, 1 mM Sodium Butyrate, […], 3 mM 17B, 1 mM 17-AAG, and 10 nM Okadaic Acid. […] All luciferase measurements were normalized to total cell protein and reported as fold-increases in expression over DMSO (vehicle-treated). All experiments were performed in triplicate wells and the experiments were repeated at least three times. For statistical analyses, student's t-tests were used. Cells grown on etched coverslips were microinjected as previously described. At least 100 cells were injected for each condition and experiments were repeated three times.
Plasmid pCMV-lux-DTS expresses luciferase from the CMV immediate early promoter and contains the SV40 DNA nuclear targeting sequence downstream of the reporter gene. All plasmids were purified from E. coli using Qiagen Gigaprep kits as described by the manufacturer (Qiagen, Chatsworth, Calif.). Plasmid pDD306, expressing GFP from the CMV promoter and which contains the GeneGrip1 PNA binding site (Gene Therapy Systems, San Diego, Calif.) was labeled with Cy3-labeled PNA as described. Briefly, plasmids were labeled with Cy3-PNA in the manufacturer's labeling buffer at 37° C. for 2 hours followed by isopropanol precipitation to remove unbound Cy3-PNA. Plasmid labeling was verified by agarose gel electrophoresis and fluorescent detection in the absence of ethidium bromide.

acetylated tubulin = test: Total and acetylated tubulin by immunofluorescence and Western blot; type: cell-based, human; design: level of microtubules (polymerized tubulin) / acetylated microtubules after treatment: dose or concentration left out as unconfirmed; details: for microtubule (tubulin) acetylation: cell cultures, immunofluorescence, versus treatment controls
Description: Prior to collection, samples were washed once in PBS (37° C.), and stabilized in two 15 minute washes in microtubule stabilization buffer (0.1M PIPES, pH 6.75, 1 mM EGTA, 1 mM MgSO4, 2 M glycerol, protease inhibitors). Cells were then lysed in microtubule lysis buffer (25 mM Tris-HCl, pH 7.4, 0.4 M NaCl and 0.5% SDS). All extracted samples were mixed with SDS-PAGE sample buffer (112.5 mM Tris-HCl, pH 6.8, 10%-mercaptoethanol, 3.6% SDS, 1.8% glycerol, 0.001% bromophenol blue) such that equal amounts of total protein were loaded for each fraction. The samples were boiled for 3 min and separated by 12% SDS-PAGE gels according to the methods previously described by Lugtenberg. Proteins were transferred to nitrocellulose and probed using anti-acetylated (1:1000, Sigma) or anti-tubulin (1:1000, Sigma) in PBS with 5% fat-free powdered milk. Blots were developed with a chemiluminescence detection kit, and autoradiograms were digitized before densitometry using ImageJ (NIH, Bethesda, Md.). All samples were run in duplicate and were from at least three independent experiments. After all treatment regimes, cells were washed with PBS followed by a 10 minute incubation in fixation/permeabilization buffer (60 mM PIPES, 25 mM HEPES, 10 mM EGTA, 3 mM MgCl2, 0.2% Triton X-100, and 3.7% paraformaldehyde). Cells were then washed in PBS and blocked for 1 hour in PBS containing 1 mg/ml BSA. After blocking, the cells were incubated for 1 hour with the appropriate primary antibody in PBS with 0.1 mg/ml BSA, washed in PBS, and reacted for 30 minutes with Alexa 488 or 555 conjugated secondary antibody (1:200, Molecular Probes, Eugene, Oreg.) in PBS with 0.1% BSA. Following a second set of washes in PBS, the silastic membranes were excised from the culture plates, placed face up on a microscope slide, and covered with a coverslip. All images were acquired in OpenLab (Improvision, Lexington, Mass.) with a Hamamatsu Orca II-ER camera attached to Leica DRMX-2 upright fluorescent microscope using a 100× oil-immersion objective.

HDAC6 = biological target: T1, HDAC6 (Homo sapiens, UniProt Q9UBN7); details: sodium butyrate 1 mM, Trichostatin A 1 μM where stated; cited from earlier work
T1 sequence (Q9UBN7 1-1215): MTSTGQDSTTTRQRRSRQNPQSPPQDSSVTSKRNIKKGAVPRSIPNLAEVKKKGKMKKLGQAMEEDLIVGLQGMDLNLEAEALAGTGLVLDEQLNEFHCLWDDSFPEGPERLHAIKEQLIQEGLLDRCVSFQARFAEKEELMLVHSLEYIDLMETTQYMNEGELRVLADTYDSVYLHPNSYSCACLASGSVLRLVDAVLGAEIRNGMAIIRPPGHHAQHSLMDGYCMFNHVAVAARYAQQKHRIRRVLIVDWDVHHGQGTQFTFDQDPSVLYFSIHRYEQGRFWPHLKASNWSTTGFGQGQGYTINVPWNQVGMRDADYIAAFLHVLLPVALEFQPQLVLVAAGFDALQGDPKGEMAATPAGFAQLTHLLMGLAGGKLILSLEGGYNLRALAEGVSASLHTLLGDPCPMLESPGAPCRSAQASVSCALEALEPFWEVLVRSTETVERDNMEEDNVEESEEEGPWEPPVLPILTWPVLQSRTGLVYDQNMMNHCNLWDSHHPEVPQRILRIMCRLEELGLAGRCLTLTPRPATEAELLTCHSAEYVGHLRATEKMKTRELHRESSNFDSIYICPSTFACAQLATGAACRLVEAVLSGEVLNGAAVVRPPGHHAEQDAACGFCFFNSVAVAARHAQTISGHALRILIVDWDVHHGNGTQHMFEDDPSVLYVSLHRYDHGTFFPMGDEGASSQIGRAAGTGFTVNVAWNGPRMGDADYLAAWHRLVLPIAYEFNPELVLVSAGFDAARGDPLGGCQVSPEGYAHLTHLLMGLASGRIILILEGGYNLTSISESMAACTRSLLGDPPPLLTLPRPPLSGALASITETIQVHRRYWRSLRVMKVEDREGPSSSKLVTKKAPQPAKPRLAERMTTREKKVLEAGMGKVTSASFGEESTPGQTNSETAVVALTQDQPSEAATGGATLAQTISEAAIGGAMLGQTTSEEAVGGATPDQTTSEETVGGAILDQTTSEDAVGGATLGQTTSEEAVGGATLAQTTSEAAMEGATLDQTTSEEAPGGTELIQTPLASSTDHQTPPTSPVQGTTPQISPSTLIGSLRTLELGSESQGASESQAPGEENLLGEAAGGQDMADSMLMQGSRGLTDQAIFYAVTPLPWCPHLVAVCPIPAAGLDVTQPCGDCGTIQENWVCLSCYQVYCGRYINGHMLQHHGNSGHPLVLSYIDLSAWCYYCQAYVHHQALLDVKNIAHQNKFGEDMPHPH

[1] = tested on: cytoplasmic HDACs (HDAC6); details: A549 cytoplasmic extracts
Description: HDAC6 Activity measurements. Cytoplasmic lysates were prepared as previously described to separate HDAC6 from nuclear HDAC activity (36). Cells were then probed for HDAC activity using a fluorescent HDAC activity kit (BioMol International LP, Plymouth Meeting, Pa.). At various times during the development of the assay, the reagents were quenched, allowing for a determination of the relative activity of the cytoplasmic HDACs.

Compound | exogenous gene expression (luciferase) versus vehicle control (A549 cells) | microtubule (tubulin) acetylation (acetylated tubulin) | luciferase expression versus DMSO (vehicle) treated or wild type cells (A549 cells) | exogenous gene expression as measured by luciferase expression over appropriate control (FIG. 4) (A549 cells) | other results
CCCC(=O)[O-].[Na+] [sodium butyrate] | significant increases | not and not observed |  |  | HDAC inhibition selectivity (HDAC6): does not inhibit HDAC6; also recorded: inhibits all HDACs except for HDAC6
CC(/C=C/C(=O)NO)=C\[C@@H](C)C(=O)c1ccc(N(C)C)cc1 [TSA, trichostatin A] | significant increases | significant microtubule acetylation | slight but significant increase | increased | higher increase in expression than sodium butyrate (A549 cells; A549, 24 hours after electroporation, 25 hours after drug): ~10 fold; microtubule (tubulin) acetylation (acetylated tubulin; listed as trichostatin A): increased; cytoplasmic HDAC activity in the assay [1]: quenched
O=C(CCCCCCC(=O)Nc1ccc([C@H]2O[C@@H](CSc3nc(-c4ccccc4)c(-c4ccccc4)o3)C[C@@H](c3ccc(CO)cc3)O2)cc1)NO [Tubacin, tubacin] |  |  |  | increased | exogenous gene expression as measured by luciferase expression over appropriate control (FIG. 4) (A549 cells; listed as tubacin): greatly increased
C=CCNC1=C2C[C@@H](C)C[C@H](OC)[C@H](O)[C@@H](C)/C=C(\C)[C@H](OC(N)=O)[C@@H](OC)/C=C\C=C(/C)C(=O)NC(=CC1=O)C2=O [17-AAG] |  |  | no increase in expression; also recorded: dampened |  | 
COC(=O)Nc1nc2ccc(C(=O)c3cccs3)cc2[nH]1 [nocodazole] |  |  |  |  | acetylated microtubules after treatment (acetylated tubulin; A549, Nocodazole, 3 hours): still remained; level of microtubules (polymerized tubulin) (acetylated tubulin; A549, Nocodazole, 3 hours): greatly diminished
C=C1[C@@H](O)[C@@H]2O[C@]3(CC[C@H](/C=C/[C@@H](C)[C@@H]4CC(C)=C[C@@]5(O[C@H](C[C@@](C)(O)C(=O)O)CC[C@H]5O)O4)O3)CC[C@H]2O[C@@H]1[C@@H](O)C[C@H](C)[C@H]1O[C@@]2(CCCCO2)CC[C@H]1C [okadiac acid, Okadaic Acid] |  |  | did not result the increase in expression |  | 
